Data published in ChEMBL document CHEMBL1135190, “A comparison of the binding of three series of nicotinic ligands” (Bioorg Med Chem Lett, 2002).

Target: Neuronal acetylcholine receptor
Assay: Binding affinity towards nicotinic acetylcholine receptor using [3H]nicotine as radioligand in rat brain homogenates
Format: tissue-based

Row | SMILES | Ki
1 | CCN(C)Cc1ccc(Br)nc1 | 62 nM
2 | CCN(C)CCOc1cccnc1 | 22 nM
3 | CN1CCCC1c1ccc(Br)nc1 (stereo unspecified) | 0.45 nM
4 | CCN(C)CCOc1cncc(Br)c1 | 447 nM
5 | CCN(C)Cc1cnc2cc3ccncc3cc2c1 | 1110 nM
6 | CCN(C)Cc1cnccc1F | 93 nM
7 | CCN(C)Cc1ccc(C)nc1 | 66 nM
8 | CCN(C)Cc1cnccc1Cl | 41 nM
9 | CCN(C)CCOc1ccc(OC)nc1 | 4070 nM
10 | CCN(C)CCOc1ccc(Br)nc1 | 290 nM
11 | CN1CCCC1c1cncc(Cl)c1 (stereo unspecified) | 0.63 nM
12 | c1ccc2ncc(C3CCCN3)cc2c1 (stereo unspecified) | 93 nM
13 | CCN(C)Cc1cncc(OC)c1 | 115 nM
14 | CN1CCCC1c1cnc2cc3ccncc3cc2c1 (stereo unspecified) | 11.2 nM
15 | CCN(C)CCOc1cncc(OC)c1 | 16 nM
16 | CN1CCCC1c1cncc(F)c1 (stereo unspecified) | 1.03 nM
